In the assay the test system is bleomycin rat model of pulmonary fibrosis. The assay is described as follows: Bleomycin rat model of pulmonary fibrosis, day 14, dexamethasone and/or test compound. Type of assay: in vivo. The note with it: Dex 2.0 mg/kg every other day, test compound 40 mg/kg twice a day. On the procedure:
Rats were intubated with saline or 1 unit of bleomycin. After twenty four hours, rats were weighed and dosed with saline or 2.0 mg/kg of dexamethasone every other day and 1% methyl cellulose (MC) or 40 mg/kg of a test compound twice a day. On day 14, 1-3 hours after dosing, rat were sacrificed and lungs were inflated and collected for analysis.
The primary end points of the analysis were the total hydroxyproline concentration per lung and lung capacity. The secondary end point was the body weight.
The statistical analysis was done using one-way ANOVA with Bonferroni's Multiple Comparison Test.

Molecules are shown by their SMILES.

Regarding `C[C@@H]1C[C@H]2[C@@H]3CCC4=CC(=O)C=C[C@]4(C)[C@@]3(F)[C@@H](O)C[C@]2(C)[C@@]1(O)C(=O)CO` [dexamethasone], the “bleomycin-induced body weight loss” value is “no effect”.
